Patent publication US11964971B2, “Methods and compositions for modulating splicing” (Skyhawk Therapeutics, Inc., priority 2019, dated 2024)

Legend:
MDR1 = test: in vitro; details: dog; for Papp A→B at 120 min, 5 μM: MDCK-MDR1, pH 7.4, MDCK-MDR1: Papp A-B (10^−6, cm/s); for Papp B→A at 120 min, 5 μM: MDCK-MDR1, pH 7.4, MDCK-MDR1: Papp B-A (10^−6, cm/s)
SMN protein = SMN protein assay (MSD) in SMA patient fibroblasts (GM03813); assay type: cell-based, human
How it was run: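 SMA patient fibroblasts GM03813 (7000 cells/well) treated 48 h with compounds from 2.5 μM to 0.6 nM. Lysate SMN protein quantified by MSD immunoassay against an SMN standard curve (1 to 19.5 μg/ml) on each plate, giving absolute amounts.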

SMN FL and SMN Δ7 = test: Quantitative splicing assay (SMN) in SMA patient fibroblasts (GM03813); assay type: cell-based; details: Homo sapiens, Fibroblast; class symbol; read-out: SMN2 Splicing FL EC50 (nM)*
Protocol: Spinal muscular atrophy (SMA) patient fibroblasts (GM03813, Coriell) are plated in 96-well plates at 50,000 cells/well. […] Treated cells are lysed and cDNA synthesized using the Fast Advanced Cells-to-Ct kit (Thermofisher A35378) according to the manufacturer's instructions. 2 μL of each cDNA are used in qPCR reactions. […] Reactions are run in a Quant Studio 6 qPCR instrument with default settings.

[1] = tested on: MDR1-MDCK cell monolayers; details: dog, MDCK-MDR1, 120 min, 5 μM, pH 7.4
MDR1 (P-gp) = test: MDCK-MDR1 permeability assay, blood-brain-barrier penetration potential; details: dog, MDCK-MDR1, pH 7.4, MDCK-MDR1 Efflux Ratio

Row | SMILES | Papp A→B at 120 min, 5 μM (MDR1) [×10⁻⁶ cm/s] | Papp B→A at 120 min, 5 μM (MDR1) [×10⁻⁶ cm/s] | EC50 (SMN protein) [nM] | EC50 (SMN FL and SMN Δ7) [nM] | MDCK-MDR1: % Recov A-B (%) [1] [%] | MDCK-MDR1: % Recov B-A (%) [1] [%] | efflux ratio at 120 min, 5 μM (MDR1 (P-gp))
1 | CN(C)C(=O)c1cc2cc(O)c(-c3cnc(N(C)[C@H]4CC5CC[C@@H](N5)[C@H]4F)cn3)cc2o1 (single isomer, unassigned) [Compound 7E2] | 1.92 | 59.9 | 501 to 10000 | 501 to 10000 | 90 | 93 | 31
2 | COc1cc(-c2ccc(-c3cnc(N(C)[C@@H]4CC5CC[C@H](N5)[C@@H]4F)cn3)c(O)c2)cnn1 (single isomer, unassigned) [Compound 26E1] | 5.06 | 24.4 | 501 to 10000 | 101 to 500 | 45 | 74 | 5
3 | COc1cc(-c2ccc(-c3cnc(N(C)[C@@H]4CC5CC(F)(F)[C@@H](C4)N5)cn3)c(O)c2)cnn1 (single isomer, unassigned) [Compound 68E2] | 9.81 | 47.2 | 501 to 10000 | 501 to 10000 | 66 | 89 | 5
4 | CN(c1cnc(-c2cc(F)c(-c3cnn(CF)c3)cc2O)cn1)[C@H]1C[C@@H]2CCC(N2)[C@H]1F (single isomer, unassigned) [Compound 29E2] | 5.59 | 18.3 | 16 to 50 | 51 to 100 | 31 | 50 | 3
5 | CN(c1cnc(-c2ccc(-c3cn[nH]c3)cc2O)cn1)[C@H]1CC2N[C@@H](C1)CC2(F)F (single isomer, unassigned) [Compound 9E1] | 17.9 | 51.6 | 501 to 10000 | – | 60 | 77 | 3
6 | CN(c1cnc(-c2ccc(-c3ccn(CF)c(=O)c3)cc2O)cn1)[C@H]1C[C@@H]2CCC(N2)[C@H]1F (single isomer, unassigned) [Compound 46E2] | 2 | 43 | 101 to 500 | – | 77 | 80 | 22
7 | CN(c1cnc(-c2ccc(-c3nnco3)cc2O)cn1)[C@@H]1CC2CC[C@H](N2)[C@@H]1F (single isomer, unassigned) [Compound 80E1] | 5.24 | 21.5 | 101 to 500 | – | 63 | 76 | 4
8 | COc1cc(-c2cc(O)c(-c3cnc(N(C)[C@H]4C[C@@H]5CCC(N5)[C@H]4F)cn3)cc2F)cc(F)n1 (single isomer, unassigned) [Compound 31E2] | 0.33 | 0.5 | 16 to 50 | – | 59 | 67 | 2
9 | COc1cc(-c2ccc(-c3cnc(N(C)[C@@H]4CC5CC[C@H](N5)[C@@H]4F)cn3)c(O)c2)ccn1 (single isomer, unassigned) [Compound 43E1] | 1.06 | 1.31 | 101 to 500 | – | 18 | 50 | 1
10 | CN(c1cnc(-c2cc3ccc(OCF)nc3cc2O)cn1)[C@@H]1CC2CC[C@H](N2)[C@@H]1F (single isomer, unassigned) [Compound 19E1] | 2.13 | 18.6 | 501 to 10000 | – | 24 | 57 | 9
11 | COc1cc(-c2cc(O)c(-c3cnc(N(C)[C@@H]4CC5CC(F)(F)[C@@H](C4)N5)cn3)cc2F)cnn1 (single isomer, unassigned) [Compound 67E1] | 22.2 | 42.5 | 501 to 10000 | – | 62 | 74 | 2
12 | Oc1cc(-n2ccnn2)c(F)cc1-c1cnc(N(C2CC2)[C@H]2C[C@@H]3CCC(N3)[C@H]2F)cn1 (single isomer, unassigned) [Compound 11E2] | 6.21 | 41.1 | 501 to 10000 | – | 69 | 72 | 7
13 | Cc1cc(-c2ccc(-c3cnc(N(C)[C@@H]4CC5CC[C@H](N5)[C@@H]4F)cn3)c(O)c2)cc(=O)[nH]1 (single isomer, unassigned) [Compound 77E1] | 0.34 | 21.9 | 501 to 10000 | – | 64 | 71 | 64
14 | Cn1cc(-c2ccc(-c3cnc(N(C4CC4)[C@@H]4C[C@@]5(C)CC[C@](C)(N5)[C@@H]4F)cn3)c(O)c2)cn1 [Compound 75E1, 2-(5-(cyclopropyl((1S,2R,3R,5R)-2-fluoro-1,5-dimethyl-8-azabicyclo[3.2.1]octan-3-yl)amino)pyrazin-2-yl)-5-(1-methyl-1H-pyrazol-4-yl)phenol] | 2.11 | 16.1 | 501 to 10000 | – | 40 | 70 | 8
15 | CN(c1cnc(-c2cc(F)c(-c3cnn(CF)c3)cc2O)cn1)[C@@H]1CC2CC[C@H](N2)[C@@H]1F (single isomer, unassigned) [Compound 29E1] | 6.29 | 17.2 | 16 to 50 | – | 38 | 56 | 3
16 | O=c1cc(-c2cc(O)c(-c3cnc(N(C4CC4)[C@@H]4CC5CC[C@H](N5)[C@@H]4F)cn3)cc2F)ccn1CF (single isomer, unassigned) [Compound 39E1] | 2.1 | 64.2 | 501 to 10000 | – | 70 | 89 | 31
17 | CN(c1cnc(-c2cc3ncn(CC(F)(F)F)c(=O)c3cc2O)cn1)[C@H]1C[C@@H]2CCC[C@@H](N2)[C@H]1F [Compound 18E2, 7-(5-(((1R,2R,3S,5S)-2-fluoro-9-azabicyclo[3.3.1]nonan-3-yl)(methyl)amino)pyrazin-2-yl)-6-hydroxy-3-(2,2,2-trifluoroethyl)quinazolin-4(3H)-one] | 1.33 | 73.5 | 501 to 10000 | – | 82 | 87 | 56
18 | Cc1cc(-c2ccc(-c3cnc(N(C)[C@H]4C[C@@H]5CCC(N5)[C@H]4F)cn3)c(O)c2)cc(=O)[nH]1 (single isomer, unassigned) [Compound 77E2] | 0.32 | 14.9 | 501 to 10000 | – | 44 | 50 | 47
19 | CN(c1cnc(-c2cc(F)c(-n3ccnn3)cc2O)cn1)[C@@H]1CC2CC[C@H](N2)[C@@H]1F (single isomer, unassigned) [Compound 21E1] | 8.48 | 43.5 | 501 to 10000 | – | 83 | 91 | 5
20 | Cn1cnc(-c2ccc(-c3cnc(N(C4CC4)[C@@H]4CC5CC[C@H](N5)[C@@H]4F)cn3)c(O)c2)cc1=O (single isomer, unassigned) [Compound 55E1] | 2.46 | 64.4 | 501 to 10000 | – | 81 | 85 | 26
21 | COc1cc(-c2cc(O)c(-c3cnc(N(C)[C@H]4C[C@@H]5CCC(N5)[C@H]4F)cn3)cc2F)ccn1 (single isomer, unassigned) [Compound 30E2] | 2.55 | 4.14 | 51 to 100 | – | 10 | 37 | 2
22 | CNC(=O)c1cc(O)c(-c2cnc(N(C)[C@H]3C[C@@H]4CCC(N4)[C@H]3F)cn2)cc1F (single isomer, unassigned) [Compound 15E2] | 2.66 | 68.8 | 501 to 10000 | – | 85 | 86 | 26
23 | CN(c1cnc(-c2ccc(-c3cn[nH]c3)cc2O)cn1)[C@@H]1C[C@H]2CCCC(N2)[C@@H]1F (single isomer, unassigned) [Compound 6E1] | 4.58 | 42.3 | 501 to 10000 | – | 76 | 69 | 9
